Laboratory results: patent US20080227655A1, “Assessment of effect of an agent on a human biological condition using rodent gene expression panels” (priority 2006, published 2008)
Several values for one entry are separate records, joined by “and”; a condition that tells them apart may be missing. Equal values may be shown once.

Test system: custom murine 40-gene Precision Profile for Rheumatoid Arthritis, whole blood
Assay: Collagen Induced Arthritis (CIA) model, whole blood gene expression by QPCR, vehicle or dexamethasone treatment
Format: in vivo, male DBA/1 mice
Experimental: Whole blood gene expression changes were evaluated in vehicle control and drug-treated murine subjects across two murine models of arthritis according to the following arthritis models:
KRN Transgenic Mouse (K/B×N): K/B×N serum from transgenic mouse used to induce arthritis in female BALB/c mice (n=54). Collagen Induced Arthritis (CIA): Bovine type II collagen used to induce arthritis in male DBA/1 mice (n=54).
In addition, naïve, untreated animal groups at baseline and terminal day were included to control for potential age-related changes in gene expression over the extended study periods. Animal groups, time-points, and treatment schedules are summarized in Tables 20A and 20B, respectively.
Whole blood samples from animals were collected by retro-orbital bleed at selected time-points in accordance with the arthritis study schemas described in […], and transferred into sample collection tubes containing a 1.5× lysis solution and RPMI. Samples were processed into total RNA and cDNA. […] It was anticipated from these murine models would provide a better understanding of the relevant molecular response of arthritis induction and their potential correlation to the human disease condition.
Normal murine subject reference values (represented as normalized Ct or ΔCt values) were established for male DBA/1 mice (n=6 for the CIA study arm) and female BALB/c mice (n=6 for the KRN study arm). In both arms of the study, gene expression response of normal (naïve, non-immunized and untreated) murine subjects were evaluated in groups of 6 each at day 0 and day 60 for the CIA study arm, and at day 0 and day 21 for the KRN study arm (see Tables 20A and 20B).
Gene expression responses for this arthritis-induced murine model were evaluated for untreated mice at day 24 and vehicle-treated mice at days 33, 42, and 60 to characterize disease progression.

[1] = CIA Day 42 Treated, group Average
[2] = CIA Day 42 Treated, group Average, whole blood
[3] = CIA Day 42 Treated, individual mice
[4] = CIA Day 42 Treated, individual mice, whole blood
[5] = CIA Day 60 Treated, group Average
[6] = CIA Day 60 Treated, group Average, whole blood
[7] = CIA Day 60 Treated, individual mice
[8] = CIA Day 60 Treated, individual mice, whole blood

C[C@@H]1C[C@H]2[C@@H]3CCC4=CC(=O)C=C[C@]4(C)[C@@]3(F)[C@@H](O)C[C@]2(C)[C@@]1(O)C(=O)CO [Dexamethasone]
CD19_M Normalized CT Value (Delta CT), Average [1]: 17.41 | CD32_M Normalized CT Value (Delta CT), Average [1]: 19.18 | CD86_M Normalized CT Value (Delta CT), Average [1]: 22.86 | CSPG2_M Normalized CT Value (Delta CT), Average [1]: 18.40 | F3_M Normalized CT Value (Delta CT), Average [1]: 24.19 | HMOX1—M Normalized CT Value (Delta CT), Average [1]: 17.42 | HSPA1A—M Normalized CT Value (Delta CT), Average [1]: 22.06 | ICAM1—M Normalized CT Value (Delta CT), Average [1]: 19.40 | IFI16_M Normalized CT Value (Delta CT), Average [1]: 18.56 | IL1A_M Normalized CT Value (Delta CT), Average [1]: 24.26 | IL1B_M Normalized CT Value (Delta CT), Average [1]: 14.10 | IL10_M Normalized CT Value (Delta CT), Average [1]: 25.70 | Normalized CT (Delta CT) IL1RAP_M [2]: 18.00 | Normalized CT (Delta CT) IL1RN—M [2]: 17.54 | Normalized CT (Delta CT) IL6_M [2]: 24.59 | Normalized CT (Delta CT) JUN_M [2]: 20.13 | Normalized CT (Delta CT) MEF2C—M [2]: 19.65 | Normalized CT (Delta CT) NFKB1—M [2]: 17.40 | Normalized CT (Delta CT) PADI4—M [2]: 17.97 | Normalized CT (Delta CT) PLA2G7—M [2]: 14.89 | ABCA1_M Normalized CT Value (Delta CT) [3]: 19.25 and 19.03 and 20.65 and 19.18 and 18.65 and 19.31 | APAF1_M Normalized CT Value (Delta CT) [3]: 20.34 and 19.23 and 20.02 and 18.89 and 19.10 and 20.01 | ARG2_M Normalized CT Value (Delta CT) [3]: 18.59 and 17.70 and 18.13 and 17.87 and 17.07 and 18.04 | CASP1_M Normalized CT Value (Delta CT) [3]: 19.07 and 17.95 and 20.08 and 18.16 and 18.00 and 18.03 | CASP3_M Normalized CT Value (Delta CT) [3]: 18.26 and 18.13 and 18.40 and 18.45 and 17.48 and 17.70 | CCR3_M Normalized CT Value (Delta CT) [3]: 19.92 and 18.94 and 19.77 and 19.05 and 19.94 | CD8A_M Normalized CT Value (Delta CT) [3]: 19.05 and 19.19 and 19.47 (2×) and 19.54 and 21.24 | CD14_M Normalized CT Value (Delta CT) [3]: 18.22 and 17.59 and 18.17 and 17.46 and 16.46 and 17.49 | CD19_M Normalized CT Value (Delta CT) [3]: 17.83 and 18.59 and 17.22 | CD32_M Normalized CT Value (Delta CT) [3]: 19.54 and 18.75 and 20.05 and 19.32 and 18.31 and 19.12 | CD86_M Normalized CT Value (Delta CT) [3]: 22.76 and 21.99 and 24.40 and 22.29 and 22.95 and 22.75 | CSPG2_M Normalized CT Value (Delta CT) [3]: 17.53 and 18.70 and 18.64 and 18.36 and 19.59 and 17.59 | F3_M Normalized CT Value (Delta CT) [3]: 21.92 and 24.08 and 25.50 and 24.56 and 23.94 and 25.11 | HMOX1—M Normalized CT Value (Delta CT) [3]: 15.87 and 17.25 and 18.49 and 17.66 and 17.84 and 17.40 | HSPA1A—M Normalized CT Value (Delta CT) [3]: 21.34 and 22.12 and 22.63 and 20.82 and 23.83 and 21.63 | ICAM1—M Normalized CT Value (Delta CT) [3]: 18.58 and 19.08 and 19.89 and 19.37 and 20.27 and 19.24 | IFI16_M Normalized CT Value (Delta CT) [3]: 17.87 and 17.97 and 18.60 and 18.06 and 20.80 and 18.04 | IL1A_M Normalized CT Value (Delta CT) [3]: 24.26 | IL1B_M Normalized CT Value (Delta CT) [3]: 13.49 and 14.12 and 14.22 and 14.25 and 14.38 and 14.15 | IL10_M Normalized CT Value (Delta CT) [3]: 25.44 (2×) and 25.71 and 25.64 and 25.84 and 26.13 | Normalized CT (Delta CT) IL1RAP_M [4]: 17.46 and 17.94 and 18.31 and 18.38 and 17.99 and 17.91 | Normalized CT (Delta CT) IL1RN—M [4]: 16.89 and 17.57 and 17.94 and 17.76 and 17.56 and 17.53 | Normalized CT (Delta CT) IL6_M [4]: 24.11 and 25.01 and 23.38 and 25.34 and 25.09 | Normalized CT (Delta CT) JUN_M [4]: 19.54 and 19.51 and 20.43 and 19.81 and 21.67 and 19.83 | Normalized CT (Delta CT) MEF2C—M [4]: 19.72 and 19.12 and 19.89 and 19.47 and 20.04 and 19.64 | Normalized CT (Delta CT) NFKB1—M [4]: 17.25 and 16.83 and 17.27 and 16.97 and 18.81 and 17.26 | Normalized CT (Delta CT) PADI4—M [4]: 17.57 and 18.02 and 17.98 (2×) and 18.35 and 17.91 | Normalized CT (Delta CT) PLA2G7—M [4]: 14.60 and 14.83 and 15.02 and 14.96 and 15.09 and 14.82 | ABCA1_M Normalized CT Value (Delta CT), Average [5]: 18.01 | APAF1_M Normalized CT Value (Delta CT), Average [5]: 18.94 | ARG2_M Normalized CT Value (Delta CT), Average [5]: 17.62 | CASP1_M Normalized CT Value (Delta CT), Average [5]: 18.09 | CASP3_M Normalized CT Value (Delta CT), Average [5]: 17.44 | CCR3_M Normalized CT Value (Delta CT), Average [5]: 20.02 | CD14_M Normalized CT Value (Delta CT), Average [5]: 17.08 | CD32_M Normalized CT Value (Delta CT), Average [5]: 18.46 | CD86_M Normalized CT Value (Delta CT), Average [5]: 22.22 | Normalized CT (Delta CT) IL1RAP_M [6]: 18.09 | Normalized CT (Delta CT) IL1RN—M [6]: 17.39 | Normalized CT (Delta CT) IL6_M [6]: 24.58 | Normalized CT (Delta CT) JUN_M [6]: 19.44 | Normalized CT (Delta CT) MEF2C—M [6]: 19.42 | Normalized CT (Delta CT) NFKB1—M [6]: 16.65 | Normalized CT (Delta CT) PADI4—M [6]: 18.36 | Normalized CT (Delta CT) PLA2G7—M [6]: 14.66 | ABCA1_M Normalized CT Value (Delta CT) [7]: 18.15 and 17.43 and 18.02 and 18.03 and 18.50 and 17.95 | APAF1_M Normalized CT Value (Delta CT) [7]: 18.90 and 18.40 and 19.28 and 18.97 and 19.36 and 18.75 | ARG2_M Normalized CT Value (Delta CT) [7]: 17.69 and 17.21 and 17.86 and 17.73 and 18.48 and 16.78 | CASP1_M Normalized CT Value (Delta CT) [7]: 17.78 and 17.53 and 18.19 and 18.75 and 18.66 and 17.61 | CASP3_M Normalized CT Value (Delta CT) [7]: 17.72 and 17.06 and 17.22 and 17.97 and 17.46 and 17.18 | CCR3_M Normalized CT Value (Delta CT) [7]: 20.33 and 18.57 and 20.17 and 20.39 and 21.29 and 19.38 | CD14_M Normalized CT Value (Delta CT) [7]: 17.31 and 16.84 (2×) and 17.24 and 17.32 and 16.92 | CD32_M Normalized CT Value (Delta CT) [7]: 18.41 and 17.86 and 18.35 and 18.90 and 18.54 and 18.72 | CD86_M Normalized CT Value (Delta CT) [7]: 22.26 and 21.38 and 22.48 and 22.41 and 22.40 and 22.37 | Normalized CT (Delta CT) IL1RAP_M [8]: 18.11 and 18.37 and 18.06 and 18.23 and 18.26 and 17.51 | Normalized CT (Delta CT) IL1RN—M [8]: 17.45 and 17.37 and 17.66 and 17.72 and 17.62 and 16.51 | Normalized CT (Delta CT) IL6_M [8]: 25.14 and 24.12 and 24.79 and 25.54 and 25.20 and 22.67 | Normalized CT (Delta CT) JUN_M [8]: 19.63 and 19.39 and 19.44 (2×) and 19.07 and 19.67 | Normalized CT (Delta CT) MEF2C—M [8]: 19.42 and 19.06 and 19.35 and 19.73 and 19.55 and 19.41 | Normalized CT (Delta CT) NFKB1—M [8]: 16.72 and 16.41 and 16.30 and 16.95 and 16.80 and 16.73 | Normalized CT (Delta CT) PADI4—M [8]: 18.90 and 18.59 and 18.29 and 18.10 and 18.41 and 17.84 | Normalized CT (Delta CT) PLA2G7—M [8]: 14.78 and 14.34 and 14.76 and 14.77 and 14.96 and 14.35 | Normalized CT (Delta CT), column 9, gene sub-head of this block not shown [8]: 24.31
